Results: PubChem BioAssay (NCI)
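The compound was tested at five concentrations on cells cultured in 96-well plates, with a 48-hour exposure period. TGI: total growth inhibition.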

Key:
Assay in all cases: NCI-60 cell line screen, 48 h
786-0 renal = test system: 786-0 renal
A498 renal = test system: A498 renal
A549 NSCLC = test system: A549 NSCLC
ACHN renal = test system: ACHN renal
BT-549 breast = test system: BT-549 breast
CAKI-1 renal = test system: CAKI-1 renal
CCRF-CEM leukemia = test system: CCRF-CEM leukemia
COLO 205 colon = test system: COLO 205 colon
DU-145 prostate = test system: DU-145 prostate
EKVX NSCLC = test system: EKVX NSCLC
HCC-2998 colon = test system: HCC-2998 colon
HCT-116 colon = test system: HCT-116 colon
HCT-15 colon = test system: HCT-15 colon
HL-60(TB) leukemia = test system: HL-60(TB) leukemia
HOP-62 NSCLC = test system: HOP-62 NSCLC
HOP-92 NSCLC = test system: HOP-92 NSCLC
HS 578T breast = test system: HS 578T breast
HT29 colon = test system: HT29 colon
IGROV1 ovarian = test system: IGROV1 ovarian
K-562 leukemia = test system: K-562 leukemia
KM12 colon = test system: KM12 colon
LOX IMVI melanoma = test system: LOX IMVI melanoma
M14 melanoma = test system: M14 melanoma
MALME-3M melanoma = test system: MALME-3M melanoma
MCF7 breast = test system: MCF7 breast
MDA-MB-231 breast = test system: MDA-MB-231 breast
MDA-MB-435 = test system: MDA-MB-435
MDA-N = test system: MDA-N
NCI-H23 lung = test system: NCI-H23 lung
NCI-H522 lung = test system: NCI-H522 lung
NCI/ADR-RES ovarian = test system: NCI/ADR-RES ovarian
OVCAR-3 ovarian = test system: OVCAR-3 ovarian
OVCAR-4 ovarian = test system: OVCAR-4 ovarian
OVCAR-5 ovarian = test system: OVCAR-5 ovarian
OVCAR-8 ovarian = test system: OVCAR-8 ovarian
PC-3 prostate = test system: PC-3 prostate
RPMI-8226 leukemia = test system: RPMI-8226 leukemia
RXF 393 renal = test system: RXF 393 renal
SF-268 CNS = test system: SF-268 CNS
SF-295 CNS = test system: SF-295 CNS
SF-539 CNS = test system: SF-539 CNS
SK-MEL-2 melanoma = test system: SK-MEL-2 melanoma
SK-MEL-28 melanoma = test system: SK-MEL-28 melanoma
SK-MEL-5 melanoma = test system: SK-MEL-5 melanoma
SN12C renal = test system: SN12C renal
SNB-19 CNS = test system: SNB-19 CNS
SNB-75 CNS = test system: SNB-75 CNS
SR leukemia = test system: SR leukemia
SW-620 colon = test system: SW-620 colon
T-47D breast = test system: T-47D breast
TK-10 renal = test system: TK-10 renal
U251 CNS = test system: U251 CNS
UACC-257 melanoma = test system: UACC-257 melanoma
UACC-62 melanoma = test system: UACC-62 melanoma
UO-31 renal = test system: UO-31 renal
MOLT-4 leukemia = test system: MOLT-4 leukemia
NCI-H226 lung = test system: NCI-H226 lung
NCI-H460 lung = test system: NCI-H460 lung
SK-OV-3 ovarian = test system: SK-OV-3 ovarian

Measured: TGI

CC1=NN(C(=O)CC(=O)Nc2cccc(C)c2)C(=O)C1N=Nc1ccc(C(=O)O)cc1 (configuration not stated)
> 100 µM: 786-0 renal | A498 renal | A549 NSCLC | ACHN renal | BT-549 breast | CAKI-1 renal | CCRF-CEM leukemia | COLO 205 colon | DU-145 prostate | EKVX NSCLC | HCC-2998 colon | HCT-116 colon | HCT-15 colon | HL-60(TB) leukemia | HOP-62 NSCLC | HOP-92 NSCLC | HS 578T breast | HT29 colon | IGROV1 ovarian | K-562 leukemia | KM12 colon | LOX IMVI melanoma | M14 melanoma | MALME-3M melanoma | MCF7 breast | MDA-MB-231 breast | MDA-MB-435 | MDA-N | NCI-H23 lung | NCI-H522 lung | NCI/ADR-RES ovarian | OVCAR-3 ovarian | OVCAR-4 ovarian | OVCAR-5 ovarian | OVCAR-8 ovarian | PC-3 prostate | RPMI-8226 leukemia | RXF 393 renal | SF-268 CNS | SF-295 CNS | SF-539 CNS | SK-MEL-2 melanoma | SK-MEL-28 melanoma | SK-MEL-5 melanoma | SN12C renal | SNB-19 CNS | SNB-75 CNS | SR leukemia | SW-620 colon | T-47D breast | TK-10 renal | U251 CNS | UACC-257 melanoma | UACC-62 melanoma | UO-31 renal

CN=C1C=C(/N=C2/C=C(N/C(=C\C#N)C(C)(C)O)OC2(C)C)OC1(C)C
82.3 µM: UO-31 renal
> 71.5 µM: HOP-92 NSCLC
69 µM: NCI-H522 lung
> 69.6 µM: RPMI-8226 leukemia
> 73.6 µM: SK-OV-3 ovarian
5.83 µM: HL-60(TB) leukemia
> 67.1 µM: CAKI-1 renal
> 100 µM: 786-0 renal | A549 NSCLC | ACHN renal | COLO 205 colon | DU-145 prostate | EKVX NSCLC | HCC-2998 colon | HCT-15 colon | HOP-62 NSCLC | HS 578T breast | HT29 colon | KM12 colon | LOX IMVI melanoma | MALME-3M melanoma | MCF7 breast | MDA-MB-231 breast | MDA-MB-435 | MDA-N | MOLT-4 leukemia | NCI-H226 lung | NCI-H23 lung | NCI-H460 lung | OVCAR-3 ovarian | OVCAR-4 ovarian | OVCAR-5 ovarian | PC-3 prostate | SF-268 CNS | SF-295 CNS | SF-539 CNS | SK-MEL-28 melanoma | SN12C renal | SNB-19 CNS | SW-620 colon | T-47D breast | TK-10 renal | U251 CNS | UACC-257 melanoma
88.9 µM: A498 renal
> 78.4 µM: M14 melanoma
> 68.5 µM: SR leukemia
> 77.8 µM: BT-549 breast
> 85.7 µM: SK-MEL-5 melanoma
80.4 µM: K-562 leukemia
> 85.8 µM: UACC-62 melanoma
> 62.6 µM: NCI/ADR-RES ovarian
> 82.8 µM: SK-MEL-2 melanoma
> 47.2 µM: OVCAR-8 ovarian
> 72.5 µM: IGROV1 ovarian
> 74 µM: CCRF-CEM leukemia
> 64 µM: SNB-75 CNS
69.4 µM: HCT-116 colon

Cc1cc(C)nc(NS(=O)(=O)c2ccc(NC(=O)c3ccc4nc5ccccc5c(Nc5ccc(S(=O)(=O)N=C(N)N)cc5)c4c3)cc2)n1
> 100 µM: 786-0 renal | A549 NSCLC | ACHN renal | BT-549 breast | CAKI-1 renal | CCRF-CEM leukemia | COLO 205 colon | DU-145 prostate | EKVX NSCLC | HCC-2998 colon | HCT-116 colon | HCT-15 colon | HL-60(TB) leukemia | HOP-62 NSCLC | HOP-92 NSCLC | HS 578T breast | HT29 colon | IGROV1 ovarian | K-562 leukemia | KM12 colon | LOX IMVI melanoma | M14 melanoma | MALME-3M melanoma | MCF7 breast | MDA-MB-231 breast | MDA-MB-435 | MDA-N | MOLT-4 leukemia | NCI-H226 lung | NCI-H23 lung | NCI-H460 lung | NCI-H522 lung | NCI/ADR-RES ovarian | OVCAR-3 ovarian | OVCAR-4 ovarian | OVCAR-5 ovarian | OVCAR-8 ovarian | PC-3 prostate | RPMI-8226 leukemia | RXF 393 renal | SF-268 CNS | SF-295 CNS | SF-539 CNS | SK-MEL-2 melanoma | SK-MEL-28 melanoma | SK-MEL-5 melanoma | SK-OV-3 ovarian | SN12C renal | SNB-19 CNS | SNB-75 CNS | SR leukemia | SW-620 colon | T-47D breast | TK-10 renal | U251 CNS | UACC-257 melanoma | UACC-62 melanoma | UO-31 renal

Cc1c(C)c2c(c(N)c1C#N)C(=O)N(NC(=S)Nc1ccccc1)C2=O
> 100 µM: 786-0 renal | A549 NSCLC | ACHN renal | BT-549 breast | CCRF-CEM leukemia | COLO 205 colon | DU-145 prostate | EKVX NSCLC | HCC-2998 colon | HCT-116 colon | HCT-15 colon | HL-60(TB) leukemia | HOP-92 NSCLC | HS 578T breast | HT29 colon | IGROV1 ovarian | K-562 leukemia | KM12 colon | M14 melanoma | MALME-3M melanoma | MCF7 breast | MDA-MB-231 breast | MDA-MB-435 | MDA-N | MOLT-4 leukemia | NCI-H226 lung | NCI-H23 lung | NCI-H460 lung | NCI-H522 lung | NCI/ADR-RES ovarian | OVCAR-3 ovarian | OVCAR-4 ovarian | OVCAR-5 ovarian | OVCAR-8 ovarian | PC-3 prostate | RPMI-8226 leukemia | RXF 393 renal | SF-268 CNS | SF-295 CNS | SF-539 CNS | SK-MEL-2 melanoma | SK-MEL-28 melanoma | SK-MEL-5 melanoma | SK-OV-3 ovarian | SN12C renal | SNB-19 CNS | SNB-75 CNS | SW-620 colon | T-47D breast | TK-10 renal | U251 CNS | UACC-257 melanoma | UACC-62 melanoma | UO-31 renal
88.1 µM: CAKI-1 renal
83.5 µM: SR leukemia
